Assay results from patent US8859250B2, “Crystal structure of glutaminyl cyclase” (Probiodrug AG, priority 2010, dated 2014).

Experiments:
[1] = target: T1, murine QC (mQC) (Mus musculus, UniProt Q9CYK2); test: Ki-values of selected inhibitors for murine QC; assay type: biochemical; conditions: murine glutaminyl cyclase
T1 construct: made in house; host or cells: Pichia pastoris (vector pPICZalphaB, secreted)

[2] = Solubility in water; assay type: physicochemical

T1 sequence (Q9CYK2 36-362): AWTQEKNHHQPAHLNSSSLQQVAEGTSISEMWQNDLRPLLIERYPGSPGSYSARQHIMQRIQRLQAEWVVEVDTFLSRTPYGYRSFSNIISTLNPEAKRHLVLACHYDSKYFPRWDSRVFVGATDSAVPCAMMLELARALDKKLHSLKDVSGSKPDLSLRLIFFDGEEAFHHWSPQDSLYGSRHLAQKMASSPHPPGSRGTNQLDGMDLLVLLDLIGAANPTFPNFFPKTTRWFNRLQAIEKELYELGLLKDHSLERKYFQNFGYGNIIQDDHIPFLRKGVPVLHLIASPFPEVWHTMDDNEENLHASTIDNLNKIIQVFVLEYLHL

| Ki [1] | solubility in water [2] | Structure (SMILES) |
| --- | --- | --- |
| 173 nM | soluble in water | COc1ccc(NC(=S)NCCCn2ccnc2)cc1OC [Inhibitor A, 1-(3-(1H-Imidazol-1-yl)propyl)-3-(3,4-dimethoxyphenyl)thiourea] |
| 51.3 nM |  | Cc1cc(C)c(N/C(=N/C#N)NCCCn2cncc2C)c(C)c1 [Inhibitor C] |
